Test results: patent publication US4895589A, “Heterocyclic compounds” (Imperial Chemical Industries PLC, priority 1985, dated 1990)
Where two headings read alike, the source gives them in different places.

What was measured:
Rice [1] = assay: Intermediate Retardant Test, rice; assay type: in vivo, Rice (Ishikari); conditions: Oryza sativa, 672 h, ~28 days, read-out: Percentage Reduction in Height of Rice (Compared to formulation blank)
Description: (§1) Three species are involved in this test RICE, SPRING-BARLEY and APPLES. The variety and growth stages at spray are outlined in Table VI. Compounds were applied at 1000 ppm and 4000 ppm respectively (1 kg and 4 kg ha^-1 at a field volume of 1000 l/ha^-1) as an overall spray. This gives a foliar and root component in the test, i.e. this test will detect the activity of both root and foliar acting compounds. The rice was grown in 4" `paddy` pots, i.e. the roots and bottom of the stems are immersed in water under conditions corresponding to those in paddy fields. Spring barley and apples were grown in 4" pots. The plants were assessed for height to top-most ligule at approximately 28 days after treatment for spring barley and rice and for height to apex at approximately 28 days after the treatment for apples. In each case the result for the 1000 ppm and 4000 ppm test for each compound is compared to the height of the formulation blank in that test, presented as a percentage reduction in height compared to the formulation blank.
as §1, with “in Table XIV. Compounds were” for “in Table VI. Compounds were”, “that test, and presented as” for “that test, presented as”

Wheat [2] = assay: Whole Plant Screen (2), wheat; assay type: in vivo, Wheat (Timmo); conditions: WW, 4000 ppm
Description: (§2) Compound numbers 12-13, 16-17 and 19-20 were tested on an alternative whole plant screen (2). The compounds were tested for plant growth regulator activity against five species for various growth effects relevant to plant growth regulation.
The plant species used in this screen are presented in Table IV with the leaf stage at which they were sprayed. Each chemical was applied at 4000 ppm (4 kg/ha in a 1000 l/ha field volume) using a tracksprayer and a SS8004E (Teejet) nozzle. […]
After 2-6 weeks in the glasshouse, depending on the time of year, the plants were visually assessed for morphological characteristics. Formulation blanks were used as controls to assess the plants. […]

Spring Barley = assay: Intermediate Retardant Test, spring barley; assay type: in vivo, Spring Barley (Atem/kym); conditions: Hordeum vulgare, 672 h, ~28 days, read-out: Percentage Reduction in Height of Spring Barley (Compared to formulation blank)
Description: as §1
as §1, with “in Table XIV. Compounds were” for “in Table VI. Compounds were”, “that test, and presented as” for “that test, presented as”

[3] = test system: plant species of Whole Plant Screen (1) or (2); assay: Across screen comparison: total retardation relative to paclobutrazol (Whole Plant Screens (1) and (2)); assay type: in vivo; conditions: for Total Retardation expressed as a percentage of the total retardation caused by paclobutrazol: compounds of EP 0052424, Table XI
Description: The following Example is a general indicative comparison of compounds from EP No. 0052424 with compounds from the preferred class in the present invention. The compounds have not been side-by-side tested on this Example because of the large numbers involved but the retardant activity can be compared using a standard which has been on each test.
The compounds which are compared in this Example have been tested on one of two tests. These are the Whole Plant Screen (1) and Whole Plant Screen (2) the methods for which are described in Examples 17 and 18 respectively.
An across screen comparison between compounds is made by expressing the total retardation (ie. sum of retardation scores recorded for each species tested) caused by the compound as a percentage of the total retardation caused by the standard in that test. The standard chemical gives a measure of the performance of the test and environmental factors. By expressing the test compound activity as a percentage of the standard compound activity these factors can be eliminated . The same standard has been used in every test and this is paclobutrazol a proprietory growth regulator.

Maize = assay: Whole Plant Screen (2), maize; assay type: in vivo, Maize (Earliking); conditions: MZ, 4000 ppm
Description: as §2
The plant species used in this screen are presented in Table IV with the leaf stage at which they were sprayed. Each chemical was applied at 4000 ppm (4 kg/ha in a 1000 l/ha field volume) using a tracksprayer and a SS8004E (Teejet) nozzle.
(§3) After spray the plants were grown in a glasshouse with 25° C. day 22° C. night temperatures and supplementary lighting was supplied when necessary (from mercury vapour lamps), to provide a 16 hour photoperiod. The exception to this were the temperate cereals, wheat and barley which were grown in 16° C. day 13° C. night temperatures.
(§4) After 2-6 weeks in the glasshouse, depending on the time of year, the plants were visually assessed for morphological characteristics. Formulation blanks were used as controls to assess the plants.
(§5) Compound numbers 1, 5 and 7 (of the present invention) were tested against compounds A, B, C and D (compound Nos. 12, 2, 24 and 50 of Table 1 EP No. 0052424) on whole plant screen (2). The compounds were tested of plant growth regulator activity against five species and for various growth effects relevant to plant growth regulation. The structures are set out in FIG. 1.
The plant species used in this screen are presented in Table XII with the leaf stage at which they were sprayed Each chemical was applied at 4000 ppm (4 kg/ha in a 1000 l/ha field volume) using a tracksprayer and a SS8004E (Teejet) nozzle.
as §3, with “day/22°” for “day 22°”, “day/13°” for “day 13°”

Apples = assay: Intermediate Retardant Test, apples; assay type: in vivo, Apples (Red Delicious); conditions: 672 h, ~28 days, read-out: Percentage Reduction in Height of Apples (Compared to formulation blank)
Description: as §1
as §1, with “in Table XIV. Compounds were” for “in Table VI. Compounds were”, “that test, and presented as” for “that test, presented as”

Rice [4] = assay: Whole Plant Screen (2), rice; assay type: in vivo, Rice (Ishikari); conditions: RC, 4000 ppm
Description: as §4, §5
(§6) The plant species used in this screen are presented in Table XII with the leaf stage at which they were sprayed Each chemical was applied at 4000 ppm (4 kg/ha in a 1000 l/ha field volume) using a tracksprayer and a SS8004E (Teejet) nozzle. […]

Barley = assay: Whole Plant Screen (2), barley; assay type: in vivo, Barley (Atem); conditions: BR, 4000 ppm
Description: as §5, §6

Wheat [5] = conditions: WW, 4000 ppm, 2-3 weeks
Description: (§7) The compounds were tested for plant growth regulator activity against up to tweleve plant species for various growth effects relevant to plant growth regulation.
(§8) After spray, the plants were grown in a glasshouse with 25° C. day/22° C. night temperatures and supplementary lighting was supplied when necessary (from mercury vapour lamps), to provide a 16 hour photoperiod. The exception to this were the temperate cereals, wheat and barley, which were grown in 16° C. day 13° C. night temperatures
(§9) After 2-3 weeks in the glasshouse, depending on the time of year, the plants were visually assessed for morphological characteristics. Formulations blanks were used as controls to assess the Plants.

Tomato = conditions: TO, 4000 ppm, 2-3 weeks
Description: as §7, §8, §9

Cynosurus cristatus = conditions: CC, 4000 ppm, 2-3 weeks

| Structure (SMILES) | Percent reduction in rice plant height vs formulation blank at 1000 ppm (Rice [1]; side-by-side, Table XVI) | Percent reduction in rice plant height vs formulation blank at 4000 ppm (Rice [1]; side-by-side, Table XVI) | height reduction vs blank at 1000 ppm (Spring Barley; side-by-side, Table XV) | height reduction vs blank at 4000 ppm (Spring Barley; side-by-side, Table XV) | Total Retardation expressed as a percentage of the total retardation caused by paclobutrazol [3] | percent reduction in plant height vs formulation blank at 1000 ppm (Apples; side-by-side, Table XVII) | percent reduction in plant height vs formulation blank at 4000 ppm (Apples; side-by-side, Table XVII) | percent reduction in plant height vs formulation blank at 4000 ppm (Apples; Table IX) | also measured |
| --- | --- | --- | --- | --- | --- | --- | --- | --- | --- |
| CC(C)(C)C=CC(O)(Cn1cncn1)C(C)(C)C (stereo not shown) [A, reference compound] | 4% | 20% | 5% | 13% | 62.5 % of paclobutrazol | 2% | 14% |  | G = Greening effect (Wheat [2]; side-by-side, Table XIII): 1 (10-30%); range of activity / superiority in comparison with EP 0052424 compounds ([3]; Tables X and XI, across screen comparison): higher range of activity than the rest of the compounds; I = Interligular or internodal length reduction (Maize; side-by-side, Table XIII): 1 (10-30%); R = Retardation (Maize; side-by-side, Table XIII): 1 (10-30%); T = Tillering or side shooting (Rice [4]; side-by-side, Table XIII): 2 (31-60%) |
| CC(C)(C)C(O)(C=Cc1ccc(Cl)cc1)Cn1cncn1 (stereo not shown) [B, reference compound] | 3% | 11% | 8% | 7% | 43.1 % of paclobutrazol | 0% | 3% |  | T = Tillering or side shooting (Barley; side-by-side, Table XIII): 1 (10-30%); I = Interligular or internodal length reduction (Maize; side-by-side, Table XIII): 1 (10-30%); R = Retardation (Maize; side-by-side, Table XIII): 1 (10-30%); I = Interligular or internodal length reduction (Rice [4]; side-by-side, Table XIII): 1 (10-30%); R = Retardation (Rice [4]; side-by-side, Table XIII): 1 (10-30%) |
| CC(C)(C)C(O)(C#Cc1ccc(Cl)cc1)Cn1cncn1 (stereo not shown) [C, reference compound] | 5% | 13% | 4% | 6% | 7.1 % of paclobutrazol | 0% | 0% |  |  |
| CCCC#CC(O)(Cn1cncn1)C(C)(C)C (stereo not shown) [Compound 11] |  |  |  |  |  |  |  |  | Retardation score (1-3) with greening (G), apical damage (A), tillering/side shooting (T) (Wheat [5]): 1 (10-30% retardation); Retardation score (1-3) with greening (G), apical damage (A), tillering/side shooting (T) (Tomato): 2T; Retardation score (1-3) with greening (G), apical damage (A), tillering/side shooting (T) (Cynosurus cristatus): 1 (10-30% retardation); height reduction vs blank at 1000 ppm (Spring Barley; Table VIII): 24%; height reduction vs blank at 4000 ppm (Spring Barley; Table VIII): 49.4% |
| CCCC#CC(Cn1cncn1)(OC)C(C)(C)C (stereo not shown) [Compound 12] |  |  |  |  |  |  |  | 33.6% | Percent reduction in rice plant height vs formulation blank at 1000 ppm (Rice [1]; Table VII): 23.8%; Percent reduction in rice plant height vs formulation blank at 4000 ppm (Rice [1]; Table VII): 49.7%; height reduction vs blank at 1000 ppm (Spring Barley; Table VIII): 2.7%; height reduction vs blank at 4000 ppm (Spring Barley; Table VIII): 12.6%; I = Interligular or internodal length reduction (Maize; 2-6 weeks, Table V): 1 (10-30%); R = Retardation (Maize; 2-6 weeks, Table V): 1 (10-30%); percent reduction in plant height vs formulation blank at 1000 ppm (Apples; Table IX): 15.7% |
| CCCC#CC(O)(Cn1cncn1)C(C)(C)CCl (stereo not shown) [Compound 19] |  |  |  |  |  |  |  | 36.6% |  |
| CCCCCC#CC(O)(Cn1cncn1)C(C)(C)CF (stereo not shown) [Compound 20] |  |  |  |  |  |  |  |  | I = Interligular or internodal length reduction (Barley; 2-6 weeks, Table V): 1 (10-30%); G = Greening effect (Wheat [2]; 2-6 weeks, Table V): 2 (31-60%); T = Tillering or side shooting (Wheat [2]; 2-6 weeks, Table V): 2 (31-60%); T = Tillering or side shooting (Rice [4]; 2-6 weeks, Table V): 1 (10-30%) |
| CCCCCCC#CC(O)(Cn1cncn1)C(C)(C)CF (stereo not shown) [Compound 21] |  |  |  |  |  |  |  | 0% | percent reduction in plant height vs formulation blank at 1000 ppm (Apples; Table IX): 10% |
| COC(C)(C)C#CC(O)(Cn1cncn1)C(C)(C)C (stereo not shown) [D, reference compound] | 2% | 7% | 9% | 13% | 3.6 % of paclobutrazol | 0% | 0% |  |  |
